Reference: DBAASP
≈ marks a conversion by molar mass, not a printed value.

Key:
Assay in all cases: ≥ marks a high value that may be exact or a test limit, other limits are often not marked, values filed in µg/mL are converted to µM
[1] = tested on: Candida albicans NCYC 1467
[2] = tested on: Enterococcus faecalis NCTC 12697
[3] = tested on: Escherichia coli NCTC 10418
[4] = tested on: Klebsiella pneumoniae ATCC 43816
[5] = tested on: Staphylococcus aureus NCTC 10788
[6] = tested on: Staphylococcus aureus NCTC 12493
[7] = tested on: Pseudomonas aeruginosa ATCC 27853
[8] = tested on: Acinetobacter baumannii ATCC 15308
Citrobacter sp. = tested on: Citrobacter sp.
Enterobacter cloacae = tested on: Enterobacter cloacae
[9] = tested on: Escherichia coli ATCC 25922
Klebsiella pneumoniae = tested on: Klebsiella pneumoniae
[10] = tested on: Pseudomonas aeruginosa ATCC 15442
[11] = tested on: Staphylococcus aureus ATCC 25923
Staphylococcus aureus = tested on: Staphylococcus aureus
Streptococcus pneumoniae = tested on: Streptococcus pneumoniae
[12] = tested on: Acinetobacter baumannii ATCC 19606
[13] = tested on: Bacillus subtilis ATCC 6051
Escherichia coli D31 = tested on: Escherichia coli D31
[14] = tested on: Pseudomonas aeruginosa PAO1
[15] = tested on: Staphylococcus aureus ATCC 27660
[16] = tested on: Candida albicans ATCC 24433
[17] = tested on: Staphylococcus epidermidis ATCC 12228

Row | SMILES | MIC [1] | MIC [2] | MIC [3] | MIC [4] | MIC [5] | MIC [6] | MIC [8] | MIC (Citrobacter sp.) | MIC (Enterobacter cloacae) | MIC [9] | MIC (Klebsiella pneumoniae) | MIC [10] | MIC [11] | MIC (Staphylococcus aureus) | MIC (Streptococcus pneumoniae) | also measured
1 | CC[C@H](C)[C@H](NC(=O)[C@H](C)NC(=O)[C@H](C)NC(=O)[C@@H]1CCCN1C(=O)[C@@H](NC(=O)[C@H](CC(C)C)NC(=O)[C@H](CCCCN)NC(=O)CNC(=O)[C@H](C)NC(=O)[C@@H](NC(=O)[C@H](CCCCN)NC(=O)[C@H](CC(C)C)NC(=O)[C@@H](NC(=O)[C@H](C)NC(=O)CNC(=O)[C@H](CC(C)C)NC(=O)[C@@H](N)Cc1ccccc1)C(C)C)C(C)C)C(C)C)C(=O)O [FLGAVLKVAGKLVPAAI] | ≥ 512 µM | ≥ 512 µM | ≥ 512 µM | ≥ 512 µM | ≥ 512 µM | ≥ 512 µM | – | – | – | – | – | – | – | – | – | –
2 | CC(C)C[C@H](NC(=O)[C@H](CCC(N)=O)NC(=O)[C@H](CCC(N)=O)NC(=O)[C@H](C)NC(=O)CNC(=O)[C@H](C)NC(=O)[C@H](CCCCN)NC(=O)CNC(=O)[C@@H](NC(=O)[C@H](CCC(N)=O)NC(=O)[C@H](CCCCN)NC(=O)[C@H](C)NC(=O)[C@H](CC(C)C)NC(=O)[C@H](Cc1ccc(O)cc1)NC(=O)[C@H](CCCCN)NC(=O)[C@H](C)NC(=O)CNC(=O)[C@H](C)NC(=O)[C@H](CCCCN)NC(=O)[C@H](Cc1ccccc1)NC(=O)[C@H](CC(C)C)NC(=O)[C@H](CO)NC(=O)[C@H](CO)NC(=O)[C@H](Cc1ccccc1)NC(=O)CN)C(C)C)C(N)=O [GFSSLFKAGAKYLAKQVGKAGAQQL] | 16 µM (≈ 41.1 µg/mL) | 8 µM (≈ 20.5 µg/mL) | 8 µM (≈ 20.5 µg/mL) | ≥ 128 µM | 8 µM (≈ 20.5 µg/mL) | 16 µM (≈ 41.1 µg/mL) | – | – | – | – | – | – | – | – | – | MIC [7]: 32 µM (≈ 82.2 µg/mL)
3 | CC[C@H](C)[C@H](NC(=O)[C@H](CC(C)C)NC(=O)CNC(=O)CNC(=O)[C@H](CC(C)C)NC(=O)[C@@H](N)Cc1ccccc1)C(=O)N[C@@H](CCCCN)C(=O)N[C@@H](Cc1c[nH]c2ccccc12)C(=O)N1CCC[C@H]1C(=O)N[C@@H](Cc1c[nH]c2ccccc12)C(=O)N[C@@H](Cc1c[nH]c2ccccc12)C(=O)N1CCC[C@H]1C(=O)N[C@@H](Cc1c[nH]c2ccccc12)C(=O)N[C@@H](CCCN=C(N)N)C(=O)N[C@@H](CCCN=C(N)N)C(N)=O [FLGGLIKWPWWPWRR] | – | – | – | – | – | – | 31.3 µM (≈ 62.5 µg/mL) | ≥ 125 µM | ≥ 125 µM | 3.91 µM (≈ 7.81 µg/mL) | > 125 µM | 15.6 µM (≈ 31.2 µg/mL) | 3.91 µM (≈ 7.81 µg/mL) | 3.91 µM (≈ 7.81 µg/mL) | 3.91 µM (≈ 7.81 µg/mL) | –
4 | CC(C)C[C@H](NC(=O)[C@H](C)N)C(=O)N[C@@H](Cc1c[nH]c2ccccc12)C(=O)N[C@@H](CCCN=C(N)N)C(=O)N[C@@H](CCCN=C(N)N)C(=O)N[C@@H](CC(C)C)C(=O)N[C@@H](CC(C)C)C(=O)N[C@@H](CCCN=C(N)N)C(=O)N[C@@H](CCCN=C(N)N)C(=O)N[C@@H](CC(C)C)C(=O)N[C@@H](CC(C)C)C(=O)N[C@@H](CCCN=C(N)N)C(=O)N[C@@H](CO)C(=O)N[C@@H](C)C(=O)N[C@@H](CCCN=C(N)N)C(=O)N[C@@H](CCCN=C(N)N)C(=O)N[C@@H](CC(C)C)C(=O)NCC(N)=O [ALWRRLLRRLLRSARRLG] | – | – | – | – | – | – | – | – | – | – | – | – | – | – | – | MIC [12]: 3.75 µM (≈ 8.48 µg/mL); MIC [13]: 1.88 µM (≈ 4.24 µg/mL); MIC (Escherichia coli D31): 1.88 µM (≈ 4.24 µg/mL); MIC [14]: 7.5 µM (≈ 17 µg/mL); MIC [15]: 3.75 µM (≈ 8.48 µg/mL)
5 | CC(C)C[C@H](NC(=O)[C@@H](N)CC(C)C)C(=O)N1CCC[C@H]1C(=O)N[C@@H](Cc1c[nH]c2ccccc12)C(=O)N[C@@H](CCCCN)C(=O)N[C@@H](Cc1c[nH]c2ccccc12)C(=O)N1CCC[C@H]1C(=O)N[C@@H](Cc1c[nH]c2ccccc12)C(=O)N[C@@H](Cc1c[nH]c2ccccc12)C(=O)N[C@@H](CCCCN)C(=O)N[C@@H](Cc1c[nH]c2ccccc12)C(=O)N[C@@H](CCCN=C(N)N)C(=O)N[C@@H](CCCN=C(N)N)C(N)=O [LLPWKWPWWKWRR] | – | – | – | – | – | – | ≥ 129 µM | ≥ 129 µM | ≥ 129 µM | 16.1 µM (≈ 31.2 µg/mL) | > 129 µM | 16.1 µM (≈ 31.2 µg/mL) | 16.1 µM (≈ 31.2 µg/mL) | 16.1 µM (≈ 31.2 µg/mL) | 16.1 µM (≈ 31.2 µg/mL) | –
6 | CC[C@H](C)[C@@H]1NC(=O)[C@H](C)NC(=O)[C@@H](NC(=O)[C@H](Cc2ccccc2)NC(=O)[C@H](Cc2c[nH]c3ccccc23)NC(=O)[C@H](CCCCN)NC(=O)[C@H](Cc2c[nH]c3ccccc23)NC(=O)[C@@H]2CCCN2C(=O)[C@H](CC(C)C)NC(=O)[C@H](Cc2ccccc2)NC(=O)[C@@H](N)CCCCN)CSSC[C@@H](C(=O)O)NC(=O)[C@H](CCCCN)NC(=O)[C@H](CCCCN)NC(=O)[C@H]([C@@H](C)O)NC1=O [KFLPWKWFCAITKKC] | 16 µM (≈ 30.4 µg/mL) | ≥ 256 µM | 16 µM (≈ 30.4 µg/mL) | ≥ 32 µM | 8 µM (≈ 15.2 µg/mL) | 8 µM (≈ 15.2 µg/mL) | – | – | – | – | – | – | – | – | – | MIC [7]: 64 µM (≈ 121 µg/mL)
7 | CC[C@H](C)[C@H](NC(=O)[C@H](CCSC)NC(=O)[C@H](C)NC(=O)[C@@H]1CCCN1C(=O)[C@@H]1CCCN1C(=O)[C@H](CCCN=C(N)N)NC(=O)[C@H](CCCCN)NC(=O)[C@@H](NC(=O)[C@H](CC(C)C)NC(=O)CNC(=O)CNC(=O)[C@H](CC(C)C)NC(=O)[C@@H](N)Cc1ccccc1)[C@@H](C)CC)C(=O)N[C@H]1CSSC[C@@H](C(=O)O)NC(=O)[C@H](CCCCN)NC(=O)[C@H](CCCCN)NC(=O)[C@H](CCCN=C(N)N)NC(=O)[C@H](C(C)C)NC(=O)[C@H](C)NC1=O [FLGGLIKRPPAMICAVRKKC] | – | – | – | – | – | – | ≥ 114 µM | ≥ 114 µM | ≥ 114 µM | > 114 µM | > 114 µM | ≥ 114 µM | > 114 µM | > 114 µM | ≥ 114 µM | –
8 | CC[C@H](C)[C@H](NC(=O)CNC(=O)[C@@H](NC(=O)[C@H](C)NC(=O)[C@@H](NC(=O)[C@H](CCCCN)NC(=O)[C@@H]1CCCN1C(=O)[C@@H](NC(=O)[C@H](CCSC)NC(=O)[C@H](CO)NC(=O)[C@H](Cc1ccccc1)NC(=O)[C@@H](N)Cc1ccccc1)[C@@H](C)CC)[C@@H](C)CC)[C@@H](C)O)C(=O)N[C@@H](C)C(=O)N[C@@H](CO)C(=O)N[C@@H](CC(C)C)C(=O)N[C@H](C(=O)N[C@@H](CCCCN)C(=O)N[C@@H](CC(=O)O)C(=O)N[C@@H](CC(C)C)C(N)=O)C(C)C [FFSMIPKIATGIASLVKDL] | – | – | – | – | – | – | – | – | – | > 100 µM | – | – | – | – | – | MIC [16]: ≥ 100 µM; MIC [17]: > 100 µM
9 | CC[C@H](C)[C@H](NC(=O)CNC(=O)[C@@H](NC(=O)[C@H](C)NC(=O)[C@@H](NC(=O)[C@H](Cc1cnc[nH]1)NC(=O)[C@@H]1CCCN1C(=O)[C@@H](NC(=O)[C@H](CC(C)C)NC(=O)[C@H](CO)NC(=O)[C@H](CC(C)C)NC(=O)[C@@H](N)Cc1ccccc1)[C@@H](C)CC)[C@@H](C)CC)[C@@H](C)O)C(=O)N[C@@H](C)C(=O)N[C@@H](C)C(=O)N[C@@H](CC(C)C)C(=O)N[C@@H](C)C(=O)N[C@@H](CCCCN)C(=O)N[C@@H](Cc1cnc[nH]1)C(=O)N[C@@H](CC(C)C)C(N)=O [FLSLIPHIATGIAALAKHL] | – | – | – | – | – | – | – | – | – | 50 µM (≈ 99.3 µg/mL) | – | – | – | – | – | MIC [16]: ≥ 100 µM; MIC [17]: 12.5 µM (≈ 24.8 µg/mL)
